The results in this text go back to ChEMBL document CHEMBL3351616, “Synthesis and evaluation of novel benzophenone-thiazole derivatives as potent VEGF-A inhibitors” (Eur J Med Chem, 2014).

Data set [1] is described as follows: Cytotoxicity against mouse DLA cells after 48 hrs by LDH release assay. It counts as functional, cell-based. On the technique in general: LDH in the medium is a marker of cell lysis.
A short description of data set [2]: Cytotoxicity against mouse EAC cells after 48 hrs by LDH release assay. It counts as functional, cell-based. The following applies: Ehrlich.
The nature of data set [3]: Cytotoxicity against mouse EAC cells after 48 hrs by MTT method. It counts as functional, cell-based. The note with it: Ehrlich.
A short description of data set [4]: Cytotoxicity against mouse DLA cells after 48 hrs by trypan blue dye exclusion method. It counts as functional, cell-based.
Data set [5] in a line: Cytotoxicity against mouse EAC cells after 48 hrs by trypan blue dye exclusion method. It counts as functional, cell-based. The note with it: Ehrlich.
Data set [6] can be described thus: Cytotoxicity against mouse DLA cells after 48 hrs by MTT method. It counts as functional, cell-based. In general terms: Formazan colour is commonly taken as a measure of viable cells.
Data set [7] deals with Ehrlich. Nature of the data set: Antitumor activity against mouse EAC cells allografted in mouse assessed as decrease in reduction in tumor volume at 50 mg/kg, ip as 3 doses on day 4,6 and 8 after tumor onset measured on day 10. It counts as functional, organism-based. Also on record: dose 50 mg/kg.
Data set [8] has as its system Ehrlich. Nature of the data set: Antitumor activity against mouse EAC cells allografted in mouse assessed as reduction in VEGF-A protein expression in tumor cells at 50 mg/kg, ip as 3 doses on day 4,6 and 8 after tumor onset by immunoblot method relative to control. It counts as functional, organism-based. Also on record: dose 50 mg/kg. (In general: Immunoblotting shows a protein as a band on a membrane.)

For data set [9], the system named is Ehrlich. Nature of the data set: Antitumor activity against mouse EAC cells allografted in mouse assessed as decrease in ascites fluid secretion at 50 mg/kg, ip as 3 doses on day 4,6 and 8 after tumor onset measured on day 10. It counts as functional, organism-based. Also on record: dose 50 mg/kg.
Data set [10] can be described thus: Antitumor activity against mouse EAC cells allografted in mouse assessed as reduction in VEGF-A protein secretion in tumor cells at 50 mg/kg, ip as 3 doses on day 4,6 and 8 after tumor onset by ELISA relative to control. It counts as functional, Ehrlich. The note with it: route intraperitoneal.
Data set [11] relates to Mus musculus. Nature of the data set: Toxicity in Swiss albino mouse assessed as change in alkaline phosphatase level at 50 mg/kg, ip consecutively for 10 days (reference value: 124.98 +/- 1.2 IU/L). It counts as organism-based. Also on record: dose 50 mg/kg, route intraperitoneal. The note with it: in vivo, 240 h.
The subject of data set [12] is Ehrlich. Nature of the data set: Antitumor activity against mouse EAC cells allografted in mouse assessed as zone of avascularization in peritoneum at 50 mg/kg, ip as 3 doses on day 4,6 and 8 after tumor onset measured on day 10. It counts as functional, organism-based. Also on record: dose 50 mg/kg.
The test system of data set [13] is Mus musculus. Nature of the data set: Toxicity in Swiss albino mouse assessed as change in creatinine level at 50 mg/kg, ip consecutively for 10 days (reference value: 0.46 +/- 1.8 mg/dl). It counts as organism-based. Also on record: dose 50 mg/kg, route intraperitoneal. The note with it: in vivo, 240 h.
Data set [14] deals with Ehrlich. Nature of the data set: Reduction in VEGF-A protein secretion in culture media of mouse EAC cells by ELISA. It counts as functional, cell-based.
Data set [15] deals with Ehrlich. Nature of the data set: Antitumor activity against mouse EAC cells allografted in mouse assessed as decrease in reduction in cell count at 50 mg/kg, ip as 3 doses on day 4,6 and 8 after tumor onset measured on day 10. Also on record: dose 50 mg/kg. It counts as functional, organism-based.
Data set [16] in a line: Antitumor activity against mouse EAC cells allografted in mouse assessed as increase in lifespan at 50 mg/kg, ip as 3 doses on day 4,6 and 8 after tumor onset measured on day 10 (reference value: 10 days). The following applies: route intraperitoneal. It counts as functional, Ehrlich.
The subject of data set [17] is Mus musculus. Nature of the data set: Toxicity in Swiss albino mouse assessed as change in RBC at 50 mg/kg, ip consecutively for 10 days (reference value: 4.75 +/- 2.1 x 10^6 /uL). It counts as organism-based. Also on record: dose 50 mg/kg, route intraperitoneal. The following applies: in vivo, 240 h.
Data set [18] relates to Mus musculus. Nature of the data set: Toxicity in Swiss albino mouse assessed as change in WBC at 50 mg/kg, ip consecutively for 10 days (reference value: […]). Also on record: dose 50 mg/kg, route intraperitoneal. It counts as organism-based. The note with it: in vivo, 240 h.
The subject of data set [19] is Mus musculus. Nature of the data set: Toxicity in Swiss albino mouse assessed as change in urea level at 50 mg/kg, ip consecutively for 10 days (reference value: 51 +/- 2.6 mg/dl). The note with it: in vivo, 240 h. It counts as organism-based. Also on record: dose 50 mg/kg, route intraperitoneal.
Data set [20] relates to Ehrlich. Nature of the data set: Antitumor activity against mouse EAC cells allografted in mouse assessed as reduction in VEGF-A mRNA expression in tumor cells at 50 mg/kg, ip as 3 doses on day 4,6 and 8 after tumor onset by RT-PCR analysis. It counts as functional, organism-based. Also on record: dose 50 mg/kg.

The source made the active and inactive calls. The rule behind the calls is not given here.

Regarding `Cc1cc(C(=O)c2cccc(Br)c2)ccc1OCC(=O)Nc1nc(-c2ccccc2)cs1`, the 50% inhibitory concentration (IC50) in [1] amounted to 23.6 µM; in [2], 25.9 µM; in data set [3], 24.4 µM; in data set [4] it was 21.7 µM; in data set [5], 24.3 µM; in data set [6], 23.8 µM.

As to `COc1ccc(-c2csc(NC(=O)COc3ccc(C(=O)c4cccc(F)c4)cc3C)n2)cc1`, the half-maximal inhibitory concentration (IC50) was 30.3 µM in data set [1]; 30.9 µM in [2]; 30.7 µM in data set [3]; 27.8 µM in data set [4]; 29.5 µM in [5]; 28.4 µM in data set [6].

In the case of `Cc1cc(C(=O)c2ccccc2)cc(C)c1OCC(=O)Nc1nc(-c2ccccc2)cs1`, the IC50 in data set [1] is 19.9 µM; in [2], 23.4 µM; in data set [3], 22.7 µM; in data set [4], 19.1 µM; in data set [5] it was 22.1 µM; in [6], 19.4 µM.

`COc1ccc(-c2csc(NC(=O)COc3ccc(C(=O)c4ccccc4)cc3C)n2)cc1`: the IC50 came to 26.2 µM in data set [1]; 28.6 µM in data set [2]; 28.4 µM in data set [3]; 24.2 µM in data set [4]; 27.1 µM in data set [5]; 25.7 µM in [6].

For the compound `Cc1cc(C(=O)c2ccccc2)ccc1OCC(=O)Nc1nc(-c2ccccc2)cs1`, the half-inhibitory concentration (IC50) in data set [1] was 23 µM; in data set [2], 24.5 µM; in [3], 24 µM; in data set [4], 21.5 µM; in [5], 22.3 µM; in data set [6] it was 22.3 µM.

In the case of `Cc1cc(C(=O)c2ccc(F)cc2)ccc1OCC(=O)Nc1nc(-c2ccccc2)cs1`, the IC50 in data set [1] was determined as 34.7 µM; in data set [2], 38.6 µM; in data set [3], 37.4 µM; in data set [4], 32.1 µM; in data set [5], 35.2 µM; in data set [6] it was 33.3 µM.

On to `COc1ccc(-c2csc(NC(=O)COc3ccc(C(=O)c4ccc(C)cc4)cc3C)n2)cc1`, for which the IC50 in [1] was determined as 18.7 µM; in data set [2] it was 20.9 µM; in data set [3] it was 20.7 µM; in data set [4], 16 µM; in data set [5], 19.4 µM; in data set [6], 17.2 µM.

Take `O=c1[nH]cc(F)c(=O)[nH]1` [FLUOROURACIL]: the concentration for half-maximal inhibition (IC50) in [1] was 16.8 µM; in [2], 15.4 µM; in data set [4] it was 15.3 µM; in data set [5], 14.6 µM; in data set [6], 15.6 µM.

As to `O=C(COc1ccc(C(=O)c2ccccc2)cc1Br)Nc1nc(-c2ccccc2)cs1`, the IC50 came to 43.5 µM in data set [1]; 46.4 µM in [2]; 46 µM in data set [3]; 42 µM in [4]; 45.8 µM in data set [5]; 43.1 µM in data set [6].

Consider `Cc1ccc(C(=O)c2ccc(OCC(=O)Nc3nc(-c4ccccc4)cs3)c(C)c2)cc1`, for which the half-maximal inhibitory concentration (IC50) in data set [1] was 27.1 µM; in [2], 30.5 µM; in data set [3], 29.9 µM; in data set [4] it was 25 µM; in data set [5] it was 28.4 µM; in data set [6], 26.4 µM.

On to `COc1ccc(-c2csc(NC(=O)COc3ccc(C(=O)c4ccc(F)cc4)cc3C)n2)cc1`, for which the IC50 in data set [1] was 5.5 µM; in [2], 5.8 µM; in data set [3], 5.4 µM; in data set [4], 5 µM; in data set [5], 5.2 µM; in [6], 5.4 µM. Besides, the Activity result in the data set with Ehrlich [7] was “Dose-dependent effect”; in the data set on Ehrlich [9], “Dose-dependent effect”; with Mus musculus [11] it was 129 IU/L; in the data set on Mus musculus [13] it was 0.44 mg/dL; in the data set on Ehrlich [14] it was “Dose-dependent effect”; in the data set on Ehrlich [15], “Dose-dependent effect”. Moreover, the results for the Activity with Mus musculus [17], in the data set with Mus musculus [18] and in the data set with Mus musculus [19] were 5.13 ×10⁶ /uL, 3.89 ×10⁶ /uL and 48 mg/dL, respectively. The result in the data set with Ehrlich [8], with Ehrlich [12] and in the data set with Ehrlich [20] was Active. Further, in data set [10], the “fold change (FC)” value is listed as 5. Besides, the Survival in data set [16] is 34 days.

With `Cc1cc(C(=O)c2ccccc2C)ccc1OCC(=O)Nc1nc(-c2ccccc2)cs1`, the IC50 is 23.7 µM in [1]; 26.4 µM in data set [2]; 25.8 µM in data set [3]; 22.2 µM in data set [4]; 24.3 µM in data set [5]; 23.1 µM in data set [6].

As for `COc1ccc(-c2csc(NC(=O)COc3ccc(C(=O)c4cccc(Br)c4)cc3C)n2)cc1`, the IC50 in data set [1] worked out at 37.1 µM; in data set [2], 40.6 µM; in data set [3], 39.2 µM; in [4] it was 35.4 µM; in [5] it was 38.1 µM; in data set [6] it was 36.6 µM.

Take `COc1ccc(-c2csc(NC(=O)COc3c(C)cc(C(=O)c4ccccc4)cc3C)n2)cc1`: the IC50 amounted to 40.1 µM in data set [1]; 41.5 µM in data set [2]; 41.2 µM in data set [3]; 38.4 µM in [4]; 40.6 µM in data set [5]; 39.4 µM in data set [6].

With `Cc1cc(C(=O)c2ccccc2F)ccc1OCC(=O)Nc1nc(-c2ccccc2)cs1`, the 50% inhibitory concentration (IC50) in data set [1] worked out at 15.6 µM; in data set [2] it was 16.9 µM; in [3], 16.7 µM; in data set [4] it was 13.7 µM; in data set [5], 15.4 µM; in [6], 14.8 µM.

A word on the IC50: it is the concentration needed to halve the response being measured. A lower IC50 goes with greater potency.
